Measured values taken from patent publication US6737383B1, “Herbicidal oxadiazolidines” (priority 1999, dated 2004).

What was measured:
duck salad = experiment: Test B flood test duck salad; type: in vivo, Heteranthera limosa
In short: (§1)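 Each value is a visual injury score relative to controls, with 10 meaning complete control and 0 no effect. Evaluation took place twelve to sixteen days after the 2-leaf-stage plants were treated and kept in the greenhouse.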

soybean = experiment: Test B pre/postemergence soybean; type: in vivo, Glycine max
In short: (§2)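 Test chemicals in a non-phytotoxic solvent mixture with surfactant were sprayed preemergence onto planted seeds and postemergence onto plants 2 to 18 cm tall (1- to 4-leaf stage). After twelve to sixteen days in a greenhouse, injury was visually rated against untreated controls from 0 (no effect) to 10 (complete control).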

rape = experiment: Test B pre/postemergence rape; type: in vivo, Brassica napus
In short: as §2

pigweed = experiment: Test B pre/postemergence pigweed; type: in vivo, Amaranthus retroflexus
In short: as §2

purple nutsedge = experiment: Test B pre/postemergence purple nutsedge; type: in vivo, Cyperus rotundus
In short: as §2

smallflower flatsedge = experiment: Test B flood test smallflower flatsedge; type: in vivo, Cyperus difformis
In short: as §1

bedstraw = experiment: Test B pre/postemergence bedstraw; type: in vivo, Galium aparine
In short: as §2

sugar beet = experiment: Test B pre/postemergence sugar beet; type: in vivo, Beta vulgaris
In short: as §2

giant foxtail = experiment: Test B pre/postemergence giant foxtail; type: in vivo, Setaria faberii
In short: as §2

wild oat = experiment: Test B pre/postemergence wild oat; type: in vivo, Avena fatua
In short: as §2

corn = experiment: Test B pre/postemergence corn; type: in vivo, Zea mays
In short: as §2

wheat = experiment: Test B pre/postemergence wheat; type: in vivo, Triticum aestivum
In short: as §2

velvetleaf = experiment: Test B pre/postemergence velvetleaf; type: in vivo, Abutilon theophrasti
In short: as §2

surinam grass = experiment: Test B pre/postemergence surinam grass; type: in vivo, Brachiaria decumbens
In short: as §2

rice = experiment: Test B flood test rice; type: in vivo, Oryza sativa
In short: as §1

cocklebur = experiment: Test B pre/postemergence cocklebur; type: in vivo, Xanthium strumarium
In short: as §2

[1] = Postemergence, Rate 62 g/ha, scale 0 to 10, 0 is no effect, 10 is complete control
[2] = Rate 250 g/ha, headed Pre-emergence (flood test species), scale 0 to 10 (0 no effect, 10 complete control)
[3] = Rate 500 g/ha, Postemergence section of Table B, 0 to 10 scale (0 no effect, 10 complete control)
[4] = Rate 500 g/ha, headed Pre-emergence (flood test species), scale 0 to 10 (0 no effect, 10 complete control)
[5] = Rate 1000 g/ha, Pre-emergence (as headed), scale 0 to 10
[6] = Rate 2000 g/ha, Pre-emergence (as headed), scale 0 to 10
[7] = flood test, listed under Postemergence, Rate 250 g/ha, scale 0 to 10, 0 no effect, 10 complete control
[8] = Postemergence, Rate 250 g/ha, scale 0 to 10, 0 no effect, 10 complete control
[9] = Preemergence, Rate 62 g/ha, scale 0 to 10, 0 is no effect, 10 is complete control
[10] = Preemergence, Rate 125 g/ha, scale 0 to 10 (0 no effect, 10 complete control)
[11] = Preemergence, Rate 250 g/ha, scale of 0 to 10 where 0 is no effect and 10 is complete control
[12] = Preemergence, Rate 500 g/ha, scale 0 (no effect) to 10 (complete control)
[13] = Rate 125 g/ha, Postemergence, scale 0 to 10, 0 no effect, 10 complete control
[14] = Rate 500 g/ha, Postemergence, 0 to 10 scale (0 no effect, 10 complete control)
[15] = Rate 125 g/ha, Postemergence section (flood test species), scale 0 to 10, 0 no effect, 10 complete control

Cc1cccc(C)c1-n1c(=O)on(C(=O)N(c2ccccc2)C(C)C)c1=O [Compound 46]
Ducksalad plant response rating (duck salad; [1]): 0 | Ducksalad plant response rating (duck salad; [2]): 0 | Ducksalad plant response rating (duck salad; [3]): 0 | Plant response rating, Ducksalad (duck salad; [4]): 0 | Ducksalad plant response rating (duck salad; [5]): 2 | Ducksalad plant response rating (duck salad; [6]): 2 | Ducksalad plant response rating (duck salad; [7]): 0 | Soybean plant response rating (soybean; [1]): 1 | Soybean plant response rating (soybean; [8]): 1 | Plant response rating, Soybean (soybean; [9]): 0 | Plant response rating, Soybean (soybean; [10]): 0 | Plant response rating, Soybean (soybean; [11]): 0 | Soybean plant response rating (soybean; [12]): 0 | Soybean plant response rating (soybean; [13]): 1 | Rape plant response rating (rape; [1]): 0 | Rape plant response rating (rape; [8]): 0 | Plant response rating, Rape (rape; [9]): 0 | Plant response rating, Rape (rape; [10]): 0 | Plant response rating, Rape (rape; [11]): 0 | Rape plant response rating (rape; [12]): 0 | Rape plant response rating (rape; [13]): 0 | Rape plant response rating (rape; [14]): 0 | Redroot pigweed plant response rating (pigweed; [1]): 0 | Redroot pigweed plant response rating (pigweed; [8]): 0 | Plant response rating, Redroot pigweed (pigweed; [9]): 0 | Plant response rating, Redroot pigweed (pigweed; [10]): 0 | Plant response rating, Redroot pigweed (pigweed; [11]): 6 | Redroot pigweed plant response rating (pigweed; [12]): 9 | Redroot pigweed plant response rating (pigweed; [13]): 0 | Redroot pigweed plant response rating (pigweed; [14]): 0 | Nutsedge plant response rating (purple nutsedge; [1]): 0 | Nutsedge plant response rating (purple nutsedge; [8]): 0 | Plant response rating, Nutsedge (purple nutsedge; [9]): 0 | Plant response rating, Nutsedge (purple nutsedge; [10]): 0 | Plant response rating, Nutsedge (purple nutsedge; [11]): 0 | Nutsedge plant response rating (purple nutsedge; [12]): 0 | Nutsedge plant response rating (purple nutsedge; [13]): 0 | Nutsedge plant response rating (purple nutsedge; [14]): 0 | S. Flatsedge plant response rating (smallflower flatsedge; [1]): 0 | S. Flatsedge plant response rating (smallflower flatsedge; Pre-emergence, Rate 1000 g/ha, scale 0 to 10 (0 no effect, 10 complete control)): 0 | S. Flatsedge plant response rating (smallflower flatsedge; [15]): 0 | S. Flatsedge plant response rating (smallflower flatsedge; [2]): 0 | Plant response rating, S. Flatsedge (smallflower flatsedge; [4]): 0 | S. Flatsedge plant response rating (smallflower flatsedge; [6]): 8 | S. Flatsedge plant response rating (smallflower flatsedge; [7]): 0 | Bedstraw plant response rating (bedstraw; [1]): 0 | Plant response rating, Bedstraw (bedstraw; [9]): 0 | Plant response rating, Bedstraw (bedstraw; [10]): 0 | Plant response rating, Bedstraw (bedstraw; [11]): 0 | Bedstraw plant response rating (bedstraw; [12]): 0 | Bedstraw plant response rating (bedstraw; [13]): 0 | Sugarbeets plant response rating (sugar beet; [1]): 0 | Sugarbeets plant response rating (sugar beet; [8]): 0 | Plant response rating, Sugarbeets (sugar beet; [9]): 0 | Plant response rating, Sugarbeets (sugar beet; [10]): 3 | Plant response rating, Sugarbeets (sugar beet; [11]): 3 | Sugarbeets plant response rating (sugar beet; [12]): 6 | Sugarbeets plant response rating (sugar beet; [13]): 0 | Giant foxtail plant response rating (giant foxtail; [1]): 0 | Giant foxtail plant response rating (giant foxtail; [8]): 1 | Plant response rating, Giant foxtail (giant foxtail; [9]): 10 | Plant response rating, Giant foxtail (giant foxtail; [10]): 10 | Plant response rating, Giant foxtail (giant foxtail; [11]): 10 | Giant foxtail plant response rating (giant foxtail; [12]): 10 | Giant foxtail plant response rating (giant foxtail; [13]): 1 | Giant foxtail plant response rating (giant foxtail; [14]): 6 | Wild oats plant response rating (wild oat; [1]): 0 | Wild oats plant response rating (wild oat; [8]): 0 | Plant response rating, Wild oats (wild oat; [10]): 0 | Plant response rating, Wild oats (wild oat; [11]): 0 | Wild oats plant response rating (wild oat; [12]): 0 | Wild oats plant response rating (wild oat; [13]): 0 | Corn plant response rating (corn; [1]): 0 | Corn plant response rating (corn; [8]): 0 | Plant response rating, Corn (corn; [9]): 0 | Plant response rating, Corn (corn; [10]): 0 | Plant response rating, Corn (corn; [11]): 0 | Corn plant response rating (corn; [12]): 0 | Corn plant response rating (corn; [13]): 0 | Corn plant response rating (corn; [14]): 0 | Wheat plant response rating (wheat; [1]): 0 | Wheat plant response rating (wheat; [8]): 0 | Plant response rating, Wheat (wheat; [9]): 0 | Plant response rating, Wheat (wheat; [10]): 0 | Plant response rating, Wheat (wheat; [11]): 0 | Wheat plant response rating (wheat; [12]): 0 | Wheat plant response rating (wheat; [13]): 0 | Velvetleaf plant response rating (velvetleaf; [1]): 0 | Velvetleaf plant response rating (velvetleaf; [8]): 0 | Plant response rating, Velvetleaf (velvetleaf; [9]): 0 | Plant response rating, Velvetleaf (velvetleaf; [10]): 0 | Plant response rating, Velvetleaf (velvetleaf; [11]): 0 | Velvetleaf plant response rating (velvetleaf; [12]): 2 | Velvetleaf plant response rating (velvetleaf; [13]): 0 | B. signalgrass plant response rating (surinam grass; [1]): 0 | B. signalgrass plant response rating (surinam grass; [8]): 0 | Plant response rating, B. signalgrass (surinam grass; [9]): 0 | Plant response rating, B. signalgrass (surinam grass; [10]): 0 | Plant response rating, B. signalgrass (surinam grass; [11]): 2 | B. signalgrass plant response rating (surinam grass; [12]): 3 | B. signalgrass plant response rating (surinam grass; [13]): 0 | B. signalgrass plant response rating (surinam grass; [14]): 0 | Rice plant response rating (rice; [1]): 0 | Rice plant response rating (rice; [15]): 0 | Rice plant response rating (rice; [2]): 0 | Rice plant response rating (rice; [3]): 0 | Plant response rating, Rice (rice; [4]): 0 | Rice plant response rating (rice; [5]): 0 | Rice plant response rating (rice; [6]): 0 | Rice plant response rating (rice; [7]): 0 | Cocklebur plant response rating (cocklebur; [1]): 0 | Cocklebur plant response rating (cocklebur; [8]): 1 | Plant response rating, Cocklebur (cocklebur; [9]): 0 | Plant response rating, Cocklebur (cocklebur; [10]): 0 | Plant response rating, Cocklebur (cocklebur; [11]): 0 | Cocklebur plant response rating (cocklebur; [12]): 0 | Cocklebur plant response rating (cocklebur; [13]): 1 | Cocklebur plant response rating (cocklebur; [14]): 2
